{"source": "patent US20210000879A1", "about": "“METHODS AND COMPOSITIONS FOR MRNA-BASED MODULATION AND DETECTION OF CELL PHENOTYPES” (Georgia Tech Research Corporation, priority 2018, published 2021)", "key": {"[1]": {"test_system": "neonatal rat ventricular cardiomyocytes", "assay": "Nuclear localization of TBX18 (FLAG) by immunostaining", "format": "cell-based", "settings": "24 hrs post-transfection", "from_the_text": "TBX18 is a transcription factor, and thus should be targeted to the nuclei upon proper translation from mRNA. Freshly-isolated neonatal rat ventricular cardiomyocytes were transfected with IVT mRNA for human TBX18 gene. TBX18 mRNA was designed with a tag peptide (DYKDDDDK (SEQ ID NO:9, also known as a “FLAG” epitope) fused to the C-terminal end of TBX18 for subcellular identification of TBX18 with an antibody against FLAG. Sarcomeric alpha-actinin (α-SA) and DAPI label cardiomyocytes and all nuclei, respectively. Arrows (co-localization of FLAG and DAPI) indicate nuclear localization of TBX18 protein. Three transfection conditions were tested in a 24-well plate, and immunostaining was performed at 24 hrs post-transfection."}, "[2]": {"test_system": "rat model of complete heart block", "assay": "Effect of TGF-beta small molecule inhibitor on ventricular pacing with TBX18 mRNA", "format": "in vivo", "settings": "A83-01 released by osmotic pump", "method": "On Day 0, an osmotic pump releasing A83-01 (a TGF-beta inhibitor, Sigma Aldrich) was implanted into the rats. On Day 1, TBX18 mRNA was injected into the rats and a telemetry device was also implanted. Two doses of TBX18 mRNA were given to the rats: (i) a low dose of 100 μg TBX18 mRNA with 68.4 μl RNA-free phosphate-buffered saline (PBS), or (ii) a high dose of 300 μg TBX18 mRNA with 205 μl RNA-free PBS. A continuous telemetry recording of each rat's electrocardiogram (ECG) was made for 21 days after implantation of the telemetry device. In addition, 3-lead surface ECGs were performed on anesthetized animals on Days 7, 14, and 21 along with an isoproterenol challenge. The heart was harvested from each animal on Day 21.\nThe inventors then determined the effects of including a TGF-beta small molecule inhibitor on ventricular pacing with TBX18 mRNA (FIG. 16)."}, "[3]": {"test_system": "neonatal rat ventricular myocytes", "assay": "Spontaneous electrical activity on multi-electrode array", "format": "cell-based", "settings": "control cardiomyocytes: infrequent and low rate activity", "method": "Spontaneous electrical activity from neonatal rat ventricular myocytes were recorded on a non-invasive, multi-electrode array platform. […] The number of electrical activity (Count) was plotted as a function of spontaneous beating rates (in beats per minute, BPM) of the cardiomyocytes."}, "[4]": {"test_system": "complete atrioventricular block (CAVB) model in rats", "assay": "Telemetry ECG in conscious rats with complete atrioventricular block", "format": "in vivo, rat", "settings": "for heart rate during isoproterenol treatment: conscious", "method": "(§1) The inventors next studied the effects of administering TBX18 mRNA to a rat model of a complete atrioventricular block. […] In this study, the inventors created a complete atrioventricular block (CAVB) model in rats and monitored the rats for one week to confirm stable and persistent CAVB. Next, TBX18 mRNA was injected into the ventricular apex of each rat and a telemetry device was implanted. Some rats received a high dose of TBX18 mRNA, which was 300 μg TBX mRNA with 205 μl RNA free PBS. The inventors continuously monitored and recorded data from the telemetry device including electrocardiograms for 21 days. The inventors performed 3-lead surface ECGs on anesthetized animals on days 7, 14 and 21 with an isoproterenol challenge, and harvested the heart on day 21.\nECG data was then compared with telemetry data. Before injection of TBX18 mRNA, telemetry biopotential electrodes were sutured to the chest wall and housed in the abdominal cavity of the rat. Telemetry 2-lead ECG signal was recorded wirelessly for conscious, awake rats. The day before injection of TBX18 mRNA, AV block was present in ECG recordings with an average heart rate of 120 bpm, and these values were used as the baseline."}, "[5]": {"test_system": "complete atrioventricular block (CAVB) model in rats", "assay": "3-lead surface ECG in rat complete atrioventricular block model", "format": "in vivo", "method": "as §1\nThe inventors determined if there was antegrade conduction (meaning that the direction of cardiac conduction occurred from the SA node, AV node and down toward the apex of the heart) or retrograde conduction (meaning that the direction of cardiac conduction occurred from the site of TBX18 delivery which was the apex of the left ventricle). In order to determine this, the inventors determined a baseline ECG under anesthesia before TBX18 mRNA injection by recording three-lead surface ECGs for ten minutes while the rat was asleep under anesthesia. Recordings confirmed the presence of AV conduction block with multiple P waves between each QRS complex, inconsistent P-R intervals, and a relatively low heart rate of 100 bpm, compared to a healthy rate of over 300 bpm for rats."}, "[6]": {"test_system": "neonatal rat ventricular cardiomyocytes", "assay": "TBX18 protein expression by immunoblot normalized to GAPDH", "format": "cell-based", "settings": "333 ng mRNA with ViroMer Red, 96-well plate", "method": "Freshly-isolated neonatal rat ventricular cardiomyocytes were transfected with IVT mRNA for human TBX18 gene. Somatic gene transfer was performed by adding 333 ng of TBX18 IVT mRNA with a transfection reagent, ViroMer Red, to a well in a 96-well plate seeded with the neonatal rat ventricular cardiomyocytes. TBX18 protein expression from the transfected IVT mRNA in the cardiomyocytes were quantitated by specific antibodies to TBX18 on immunoblots and normalized to an endogenous housekeeping protein, GAPDH. […] The TBX18 protein expression was also transient, in line with the expression kinetics of the delivered mRNA. This transient expression of TBX18 closely mimicked its native expression during embryonic development, and is ideal for the intended purpose as a reprogramming agent to convert ordinary heart muscle cells to specialized cardiac pacemaker cells. In FIG. 12, D denotes days after transfection, and each time point consists of two technical replicates."}, "[7]": {"test_system": "neonatal rat ventricular cardiomyocytes", "assay": "TBX18 IVT mRNA entry by qPCR normalized to GAPDH", "format": "cell-based", "settings": "333 ng mRNA with ViroMer Red, 96-well plate", "method": "Freshly-isolated neonatal rat ventricular cardiomyocytes were transfected with IVT mRNA for human TBX18 gene. Somatic gene transfer was performed by adding 333 ng of TBX18 IVT mRNA with a transfection reagent, ViroMer Red, to a well in a 96-well plate seeded with the neonatal rat ventricular cardiomyocytes. TBX18 IVT mRNA that successfully entered the cardiomyocytes were quantitated by quantitative real-time PCR (qPCR), and the TBX18 mRNA level was normalized to an endogenous housekeeping gene, GAPDH, over time."}, "[8]": {"test_system": "porcine model of complete heart block", "assay": "Porcine model of complete heart block", "format": "in vivo, pig", "from_the_text": "The inventors next sought to test the TBX18 mRNA in a large animal model, specifically a porcine model, of complete heart block. The inventors used a control of GFP mRNA+A83-01. On Day 1, the inventors created an intracardiac map by implanting a pacemaker and administered the TBX18 mRNA or control. Weeks 2, 4, and 6 after administration included an interrogation of the pacemaker and an isoproterenol challenge to measure the animals' maximum heart rate (max HR). In Week 6, arrythmia testing and intracardiac mapping were performed and vital organs were harvested. […] The proper diurnal response in TBX18-injected pig is in line with the average heart rate data from FIG. 18."}}, "data": [{"substance": "TBX18 mRNA: IVT mRNA for human TBX18 gene, with FLAG tag peptide fused to the C-terminal end of TBX18", "values": [{"measurement": "cardiomyocytes positive for nuclear TBX18 (FLAG positive)", "setting": "[1]; 0.5 μg of IVT mRNA+0.2 μl of ViroMer Red", "value": 4, "unit": "%"}, {"measurement": "cardiomyocytes positive for nuclear TBX18 (FLAG positive)", "setting": "[1]; 1 μg of IVT mRNA+0.1 μl of ViroMer Red", "value": 2, "unit": "%"}, {"measurement": "cardiomyocytes positive for nuclear TBX18 (FLAG positive)", "setting": "[1]; 1 μg of IVT mRNA+0.2 μl of ViroMer Red", "value": 21, "unit": "%"}, {"measurement": "effect on ventricular pacing / block", "setting": "[2]", "value": "created a complete ventricular block"}, {"measurement": "spontaneous pacemaker activity", "setting": "[3]", "value": "highly active, high rate pacemaker activity"}, {"measurement": "ventricular pacing by continuous recording of heart rate and heart rate histograms", "setting": "[4]; histograms on Days 21 after injection", "value": "created ventricular pacing"}, {"measurement": "heart rate during isoproterenol treatment", "setting": "[4]; one week after delivery, baseline 120 bpm", "value": 265, "unit": "bpm"}, {"measurement": "heart rate during isoproterenol treatment", "setting": "[4]; three weeks after delivery", "value": 260, "unit": "bpm"}, {"measurement": "heart rate during isoproterenol treatment", "setting": "[4]; two weeks after delivery", "value": 206, "unit": "bpm"}, {"measurement": "biological cardiac pacing", "setting": "[5]; focal intramyocardial injection into ventricular apex", "value": "created in vivo biological cardiac pacing"}, {"measurement": "conduction vector (cardiac axis mapping)", "setting": "[5]; one week after injection, baseline 77 degrees", "value": 49, "unit": "degrees"}, {"measurement": "heart rate with isoproterenol", "setting": "[5]; one week after injection, isoproterenol challenge", "value": 229, "unit": "bpm"}, {"measurement": "average heart rate", "setting": "[5]; one week after injection, under anesthesia, baseline 100 bpm", "value": 120, "unit": "bpm"}, {"measurement": "average heart rate", "setting": "[5]; three weeks after injection", "value": 137, "unit": "bpm"}, {"measurement": "conduction vector of normal QRS complexes", "setting": "[5]; three weeks after injection, anterograde", "value": 48, "unit": "degrees"}, {"measurement": "conduction vector of transient QRS complexes with isoproterenol", "setting": "[5]; three weeks after injection, isoproterenol, retrograde", "value": "−110", "unit": "degrees"}, {"measurement": "conduction vector of PVCs", "setting": "[5]; three weeks after injection, retrograde", "value": "−116", "unit": "degrees"}, {"measurement": "time post-transfection to TBX18 protein expression", "setting": "[6]", "value": "less than 6 hours"}, {"measurement": "entry of IVT mRNA into cardiomyocytes", "setting": "[7]", "value": "efficient entry"}, {"measurement": "R-R interval as the pig becomes awake in the morning", "setting": "[8]; diurnal response", "value": "shorter R-R interval (faster heart rate)"}, {"measurement": "time after delivery within which ventricular pacing was created", "setting": "[8]; pig, in vivo", "value": "7 to 10", "unit": "days"}]}]}
